# BindingDB's records for doi:10.1021/jm301755q (University Health Network, 2013)
# What was measured:
# [1] = biological target: Protein-arginine deiminase type-4 (Homo sapiens) (UniProt Q9UM07); assay: Inhibition of PAD4 (unknown origin) at 52 degC
# [2] = biological target: Protein-arginine deiminase type-4 (Homo sapiens) (UniProt Q9UM07); assay: Inhibition of PAD4 (unknown origin) at 37 degC
# Sequence of Protein-arginine deiminase type-4 (Homo sapiens) (Q9UM07 whole entry, looked up): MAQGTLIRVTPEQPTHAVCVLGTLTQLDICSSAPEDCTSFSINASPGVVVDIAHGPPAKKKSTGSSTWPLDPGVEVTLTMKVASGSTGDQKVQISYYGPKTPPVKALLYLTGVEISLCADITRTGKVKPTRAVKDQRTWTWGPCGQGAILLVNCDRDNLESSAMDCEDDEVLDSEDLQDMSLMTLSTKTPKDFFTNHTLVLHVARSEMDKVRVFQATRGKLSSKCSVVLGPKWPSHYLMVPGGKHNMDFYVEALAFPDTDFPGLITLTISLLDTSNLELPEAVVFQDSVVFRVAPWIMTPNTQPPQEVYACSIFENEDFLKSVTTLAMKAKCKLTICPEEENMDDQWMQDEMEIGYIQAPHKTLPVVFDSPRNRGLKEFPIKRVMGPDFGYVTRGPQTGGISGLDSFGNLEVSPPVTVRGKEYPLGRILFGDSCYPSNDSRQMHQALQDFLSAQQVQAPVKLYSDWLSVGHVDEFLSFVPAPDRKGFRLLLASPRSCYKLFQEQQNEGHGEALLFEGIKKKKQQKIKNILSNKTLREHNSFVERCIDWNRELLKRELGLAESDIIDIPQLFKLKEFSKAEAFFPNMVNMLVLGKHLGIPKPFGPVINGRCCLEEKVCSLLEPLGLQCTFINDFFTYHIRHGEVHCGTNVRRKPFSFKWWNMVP
IC50 [1] [µM],Ki [1] [µM],IC50 [2] [µM],Ki [2] [µM],Compound
757,66,1760,153,CC1CCc2c(sc3ncn(N)c(=N)c23)C1 (stereo unspecified)
2650,231,1320,115,C[C@H]1C(=O)Nc2ccc(-c3csc(N=C(N)N)n3)cc21
790,69,1460,127,CC(=NN=C(N)N)C1=CC(C)(C)CCC1
4270,371,1380,131,CC1(C)NC(=O)N(CN2CCNCC2)C1=O
